According to ChEMBL document CHEMBL1201862, “PubChem BioAssay data set” (2004):
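All cell lines were grown in 96-well plates and treated with compound for 48 hours. Abbreviation: GI50, concentration required for 50% inhibition of growth.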 The source made the active and inactive calls. Cut-off read from the data, not from the text of the source: active = GI50 up to about 1.1 µM and inactive = higher.

Assays:
Test in all cases: NCI tumour cell line growth inhibition, 48 h
KM12 = test system: KM12
DMS-273 = test system: DMS-273
CCRF-CEM = test system: CCRF-CEM
SF-295 = test system: SF-295
SK-MEL-28 = test system: SK-MEL-28
RPMI-8226 = test system: RPMI-8226
OVCAR-8 = test system: OVCAR-8
A549 = test system: A549
SNB-78 = test system: SNB-78
HOP-92 = test system: HOP-92
SF-268 = test system: SF-268
SK-MEL-2 = test system: SK-MEL-2
NCI-H522 = test system: NCI-H522
A498 = test system: A498
ACHN = test system: ACHN
SNB-75 = test system: SNB-75
NCI-H460 = test system: NCI-H460
K562 = test system: K562
CAKI-1 = test system: CAKI-1
COLO 205 = test system: COLO 205
EKVX = test system: EKVX
U-251 = test system: U-251
SNB-19 = test system: SNB-19
RXF 631 = test system: RXF 631
OVCAR-5 = test system: OVCAR-5
NCI-H226 = test system: NCI-H226
MOLT-4 = test system: MOLT-4
HL-60 = test system: HL-60
LXFL 529 = test system: LXFL 529
SK-MEL-5 = test system: SK-MEL-5
M14 = test system: M14
HCT-15 = test system: HCT-15
TK-10 = test system: TK-10
DMS-114 = test system: DMS-114
DLD-1 = test system: DLD-1
SF-539 = test system: SF-539
UACC-257 = test system: UACC-257
HOP-18 = test system: HOP-18
OVCAR-4 = test system: OVCAR-4
IGROV-1 = test system: IGROV-1
SK-OV-3 = test system: SK-OV-3
UACC-62 = test system: UACC-62
Malme-3M = test system: Malme-3M
HCC 2998 = test system: HCC 2998
786-0 = test system: 786-0
SW-620 = test system: SW-620
NCI-H23 = test system: NCI-H23
SN12C = test system: SN12C
UO-31 = test system: UO-31
OVCAR-3 = test system: OVCAR-3
HOP-62 = test system: HOP-62
KM-20L2 = test system: KM-20L2
M19-MEL = test system: M19-MEL
LOX IMVI = test system: LOX IMVI
RXF 393 = test system: RXF 393
HT-29 = test system: HT-29
SR = test system: SR
HCT-116 = test system: HCT-116
MCF7 = test system: MCF7
MDA-MB-435 = test system: MDA-MB-435
DU-145 = test system: DU-145
MDA-N = test system: MDA-N
XF498 = test system: XF498
T47D = test system: T47D
BT-549 = test system: BT-549
PC-3 = test system: PC-3

CCn1c(=O)nc2n(-c3ccc(SC)cc3)c3ccccc3nc-2c1=O
GI50 (KM12): > 100 µM (inactive) | GI50 (DMS-273): 71.1 µM (inactive) | GI50 (CCRF-CEM): > 100 µM (inactive) | GI50 (SF-295): > 100 µM (inactive) | GI50 (SK-MEL-28): > 100 µM (inactive) | GI50 (RPMI-8226): 71.1 µM (inactive) | GI50 (OVCAR-8): > 100 µM (inactive) | GI50 (A549): 29.1 µM (inactive) | GI50 (SNB-78): > 100 µM (inactive) | GI50 (HOP-92): > 100 µM (inactive) | GI50 (SF-268): 79.8 µM (inactive) | GI50 (SK-MEL-2): > 100 µM (inactive) | GI50 (NCI-H522): > 100 µM (inactive) | GI50 (A498): > 100 µM (inactive) | GI50 (ACHN): 1.87 µM (inactive) | GI50 (SNB-75): 76 µM (inactive) | GI50 (NCI-H460): 20.9 µM (inactive) | GI50 (K562): > 100 µM (inactive) | GI50 (CAKI-1): 32.9 µM (inactive) | GI50 (COLO 205): 8.15 µM (inactive) | GI50 (EKVX): > 100 µM (inactive) | GI50 (U-251): > 100 µM (inactive) | GI50 (SNB-19): > 100 µM (inactive) | GI50 (RXF 631): > 100 µM (inactive) | GI50 (OVCAR-5): > 100 µM (inactive) | GI50 (NCI-H226): > 100 µM (inactive) | GI50 (MOLT-4): > 100 µM (inactive) | GI50 (HL-60): 35.7 µM (inactive) | GI50 (LXFL 529): > 100 µM (inactive) | GI50 (SK-MEL-5): 9.42 µM (inactive) | GI50 (M14): > 100 µM (inactive) | GI50 (HCT-15): > 100 µM | GI50 (TK-10): > 100 µM (inactive) | GI50 (DMS-114): 69.7 µM (inactive) | GI50 (DLD-1): > 100 µM (inactive) | GI50 (SF-539): 54 µM (inactive) | GI50 (UACC-257): > 100 µM (inactive) | GI50 (HOP-18): > 100 µM (inactive) | GI50 (OVCAR-4): > 100 µM (inactive) | GI50 (IGROV-1): > 100 µM (inactive) | GI50 (SK-OV-3): > 100 µM (inactive) | GI50 (UACC-62): 50.9 µM (inactive) | GI50 (Malme-3M): > 100 µM (inactive) | GI50 (HCC 2998): 29 µM (inactive) | GI50 (786-0): > 100 µM (inactive) | GI50 (SW-620): 17.7 µM (inactive) | GI50 (NCI-H23): > 100 µM (inactive) | GI50 (SN12C): > 100 µM (inactive) | GI50 (UO-31): > 100 µM (inactive) | GI50 (OVCAR-3): 24.6 µM (inactive) | GI50 (HOP-62): > 100 µM (inactive) | GI50 (KM-20L2): 40.5 µM (inactive) | GI50 (M19-MEL): 30.7 µM (inactive)

Cc1c(C(=O)CC(=O)C(=O)Nc2cccc(C(F)(F)F)c2)[n+]([O-])c2ccccc2[n+]1[O-]
GI50 (KM12): 4.1 µM (inactive) | GI50 (DMS-273): 3.41 µM (inactive) | GI50 (CCRF-CEM): 2.51 µM (inactive) | GI50 (SF-295): 10.6 µM (inactive) | GI50 (SK-MEL-28): 7.35 µM (inactive) | GI50 (RPMI-8226): 3.07 µM (inactive) | GI50 (OVCAR-8): 2.45 µM (inactive) | GI50 (A549): 14.4 µM (inactive) | GI50 (SNB-78): 6.79 µM (inactive) | GI50 (HOP-92): 14.3 µM (inactive) | GI50 (SF-268): 3.67 µM (inactive) | GI50 (SK-MEL-2): 4.28 µM (inactive) | GI50 (NCI-H522): 2.31 µM (inactive) | GI50 (A498): 20.7 µM (inactive) | GI50 (ACHN): 3.15 µM (inactive) | GI50 (SNB-75): 3.04 µM (inactive) | GI50 (NCI-H460): 2.97 µM (inactive) | GI50 (LOX IMVI): 2.86 µM (inactive) | GI50 (RXF 393): 11.5 µM (inactive) | GI50 (K562): 3.8 µM (inactive) | GI50 (CAKI-1): 6.47 µM (inactive) | GI50 (COLO 205): 3.33 µM (inactive) | GI50 (EKVX): 5.07 µM (inactive) | GI50 (U-251): 4.03 µM (inactive) | GI50 (SNB-19): 4.88 µM (inactive) | GI50 (RXF 631): 2.84 µM (inactive) | GI50 (OVCAR-5): 7.28 µM (inactive) | GI50 (NCI-H226): 30.8 µM (inactive) | GI50 (MOLT-4): 2.71 µM (inactive) | GI50 (HL-60): 3.08 µM (inactive) | GI50 (LXFL 529): 4.02 µM (inactive) | GI50 (HT-29): 3.79 µM (inactive) | GI50 (SK-MEL-5): 3.57 µM (inactive) | GI50 (M14): 3.37 µM (inactive) | GI50 (HCT-15): 3.31 µM | GI50 (TK-10): 28.2 µM (inactive) | GI50 (SR): 2.33 µM (inactive) | GI50 (DMS-114): 1.92 µM (inactive) | GI50 (SF-539): 3.13 µM (inactive) | GI50 (HCT-116): 3.06 µM (inactive) | GI50 (UACC-257): 2.56 µM (inactive) | GI50 (HOP-18): 11.2 µM (inactive) | GI50 (OVCAR-4): 2.42 µM (inactive) | GI50 (IGROV-1): 2.74 µM (inactive) | GI50 (SK-OV-3): 18.2 µM (inactive) | GI50 (UACC-62): 2.76 µM (inactive) | GI50 (Malme-3M): 4.22 µM (inactive) | GI50 (HCC 2998): 4.72 µM (inactive) | GI50 (786-0): 5.79 µM (inactive) | GI50 (SW-620): 3.54 µM (inactive) | GI50 (NCI-H23): 7.36 µM (inactive) | GI50 (SN12C): 3.37 µM (inactive) | GI50 (UO-31): 16.3 µM (inactive) | GI50 (OVCAR-3): 1.66 µM (inactive) | GI50 (HOP-62): 23.6 µM (inactive) | GI50 (KM-20L2): 3.8 µM (inactive) | GI50 (M19-MEL): 1.82 µM (inactive)

CCOC(=O)C(=Cc1ccc(Oc2ccccc2)cc1)C(=O)OCC
GI50 (KM12): 5.98 µM (inactive) | GI50 (DMS-273): 1.69 µM (inactive) | GI50 (CCRF-CEM): 2.03 µM (inactive) | GI50 (SF-295): 5.13 µM (inactive) | GI50 (SK-MEL-28): 3.56 µM (inactive) | GI50 (RPMI-8226): 2.79 µM (inactive) | GI50 (OVCAR-8): 2.19 µM (inactive) | GI50 (A549): 8.45 µM (inactive) | GI50 (SNB-78): 5.7 µM (inactive) | GI50 (HOP-92): 4.03 µM (inactive) | GI50 (SF-268): 3.32 µM (inactive) | GI50 (MCF7): 4.09 µM (inactive) | GI50 (SK-MEL-2): 1.85 µM (inactive) | GI50 (NCI-H522): 4.22 µM (inactive) | GI50 (A498): 15.3 µM (inactive) | GI50 (ACHN): 6.3 µM (inactive) | GI50 (SNB-75): 2.66 µM (inactive) | GI50 (NCI-H460): 18.2 µM (inactive) | GI50 (LOX IMVI): 1.47 µM (inactive) | GI50 (MDA-MB-435): 2.58 µM (inactive) | GI50 (RXF 393): 1.89 µM (inactive) | GI50 (K562): 1.87 µM (inactive) | GI50 (CAKI-1): 14.1 µM (inactive) | GI50 (COLO 205): 4.06 µM (inactive) | GI50 (EKVX): 15.4 µM (inactive) | GI50 (U-251): 3.35 µM (inactive) | GI50 (SNB-19): 5.73 µM (inactive) | GI50 (DU-145): 11.6 µM (inactive) | GI50 (RXF 631): 3.03 µM (inactive) | GI50 (OVCAR-5): 4.44 µM (inactive) | GI50 (NCI-H226): 3.17 µM (inactive) | GI50 (MDA-N): 4.41 µM (inactive) | GI50 (MOLT-4): 1.92 µM (inactive) | GI50 (XF498): 4.32 µM (inactive) | GI50 (HL-60): 1.73 µM (inactive) | GI50 (LXFL 529): 2.29 µM (inactive) | GI50 (HT-29): 3.18 µM (inactive) | GI50 (SK-MEL-5): 1.98 µM (inactive) | GI50 (M14): 3.82 µM (inactive) | GI50 (T47D): 5.85 µM (inactive) | GI50 (HCT-15): 2.44 µM | GI50 (TK-10): 7.74 µM (inactive) | GI50 (SR): 2.52 µM (inactive) | GI50 (DMS-114): 3.07 µM (inactive) | GI50 (DLD-1): 2.14 µM (inactive) | GI50 (SF-539): 3.84 µM (inactive) | GI50 (HCT-116): 2.31 µM (inactive) | GI50 (BT-549): 1.84 µM (inactive) | GI50 (UACC-257): 2.42 µM (inactive) | GI50 (HOP-18): 13.8 µM (inactive) | GI50 (OVCAR-4): 7.59 µM (inactive) | GI50 (IGROV-1): 6.81 µM (inactive) | GI50 (SK-OV-3): 7.05 µM (inactive) | GI50 (UACC-62): 1.63 µM (inactive) | GI50 (Malme-3M): 2.56 µM (inactive) | GI50 (HCC 2998): 10.6 µM (inactive) | GI50 (786-0): 1.85 µM (inactive) | GI50 (SW-620): 2.22 µM (inactive) | GI50 (NCI-H23): 2.58 µM (inactive) | GI50 (SN12C): 2.27 µM (inactive) | GI50 (UO-31): 4.35 µM (inactive) | GI50 (OVCAR-3): 6.38 µM (inactive) | GI50 (HOP-62): 3.28 µM (inactive) | GI50 (KM-20L2): 4.65 µM (inactive) | GI50 (PC-3): 2.16 µM (inactive)
